ChEMBL document CHEMBL4177534, “Discovery and evaluation of 1H-pyrrolo[2,3-b]pyridine based selective and reversible small molecule BTK inhibitors for the treatment of rheumatoid arthritis” (Bioorg Med Chem Lett, 2017)

Key:
[1] = Half life in mouse at 3 mg/kg, iv; format: ADME, organism-based; settings: in vivo
[2] = biological target: High affinity nerve growth factor receptor (Homo sapiens) (UniProt P04629); assay: Inhibition of recombinant human N-terminal GST-tagged TRKA (440 to end residues) expressed in baculovirus infected Sf9 cells assessed as change in enzyme activity at 1 uM in presence of 2 uM ATP relative to control; parameters: scale not given: the % may be the effect or the level left
[3] = biological target: Protein kinase C (PKC) (Homo sapiens) (UniProt O94806+P41743+P17252+P05129+Q05655+P05771+Q05513+Q02156+P24723+Q15139+Q04759); assay: Inhibition of recombinant human full length N-terminal GST-tagged PKCalpha expressed in baculovirus infected Sf9 cells assessed as change in enzyme activity at 1 uM in presence of 1 uM ATP relative to control; parameters: scale not given: the % may be the effect or the level left
[4] = biological target: Mitogen-activated protein kinase kinase kinase 1 (Homo sapiens) (UniProt Q13233); assay: Inhibition of recombinant human N-terminal GST-tagged MEKK1 ([…] residues) expressed in baculovirus infected Sf9 cells assessed as change in enzyme activity at 1 uM in presence of 2 uM ATP relative to control; parameters: scale not given: the % may be the effect or the level left
Sequence of Mitogen-activated protein kinase kinase kinase 1 (Homo sapiens) (Q13233 whole entry): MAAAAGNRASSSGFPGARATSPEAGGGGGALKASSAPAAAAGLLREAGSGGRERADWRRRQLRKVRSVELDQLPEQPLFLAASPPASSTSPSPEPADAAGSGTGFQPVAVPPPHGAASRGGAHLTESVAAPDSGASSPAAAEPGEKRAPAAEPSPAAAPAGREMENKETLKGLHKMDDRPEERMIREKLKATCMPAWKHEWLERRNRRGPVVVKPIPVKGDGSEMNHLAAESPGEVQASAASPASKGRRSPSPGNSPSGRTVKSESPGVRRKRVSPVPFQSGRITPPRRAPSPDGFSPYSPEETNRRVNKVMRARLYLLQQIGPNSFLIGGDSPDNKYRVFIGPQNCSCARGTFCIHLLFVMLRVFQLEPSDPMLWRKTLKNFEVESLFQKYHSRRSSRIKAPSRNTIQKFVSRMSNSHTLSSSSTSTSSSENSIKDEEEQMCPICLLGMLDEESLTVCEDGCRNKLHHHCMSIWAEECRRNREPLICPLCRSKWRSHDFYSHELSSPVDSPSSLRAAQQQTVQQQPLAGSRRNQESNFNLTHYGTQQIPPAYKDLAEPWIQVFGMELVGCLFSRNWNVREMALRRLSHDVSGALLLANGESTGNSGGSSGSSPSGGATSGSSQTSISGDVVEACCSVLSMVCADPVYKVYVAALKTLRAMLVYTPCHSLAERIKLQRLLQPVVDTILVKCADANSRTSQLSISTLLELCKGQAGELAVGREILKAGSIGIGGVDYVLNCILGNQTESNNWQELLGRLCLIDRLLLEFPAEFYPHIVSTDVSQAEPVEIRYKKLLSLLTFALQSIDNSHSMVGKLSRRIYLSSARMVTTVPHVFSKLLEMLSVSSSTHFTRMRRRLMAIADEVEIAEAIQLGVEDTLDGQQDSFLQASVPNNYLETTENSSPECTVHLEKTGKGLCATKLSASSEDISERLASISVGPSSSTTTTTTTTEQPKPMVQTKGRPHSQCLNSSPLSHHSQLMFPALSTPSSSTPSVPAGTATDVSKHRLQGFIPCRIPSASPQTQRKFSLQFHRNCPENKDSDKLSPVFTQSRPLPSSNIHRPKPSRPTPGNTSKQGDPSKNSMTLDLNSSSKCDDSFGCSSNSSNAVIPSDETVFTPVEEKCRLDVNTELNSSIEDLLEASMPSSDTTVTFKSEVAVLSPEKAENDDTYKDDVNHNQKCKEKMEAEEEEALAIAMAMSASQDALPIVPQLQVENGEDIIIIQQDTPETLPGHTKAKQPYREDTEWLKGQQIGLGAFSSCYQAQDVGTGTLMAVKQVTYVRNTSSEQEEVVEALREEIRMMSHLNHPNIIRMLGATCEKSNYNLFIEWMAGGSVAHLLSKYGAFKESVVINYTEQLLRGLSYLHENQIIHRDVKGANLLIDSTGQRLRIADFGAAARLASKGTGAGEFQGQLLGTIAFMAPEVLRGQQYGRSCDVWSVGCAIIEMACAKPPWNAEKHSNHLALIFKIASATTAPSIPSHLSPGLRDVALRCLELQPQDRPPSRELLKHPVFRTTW

[5] = biological target: Serine/threonine-protein kinase VRK1 (Homo sapiens) (UniProt Q99986); assay: Inhibition of recombinant human full length N-terminal GST-tagged VRK1 expressed in baculovirus infected Sf9 cells assessed as change in enzyme activity at 1 uM in presence of 2 uM ATP relative to control; parameters: scale not given: the % may be the effect or the level left
[6] = Oral bioavailability in mouse at 10 mg/kg; format: ADME, organism-based; settings: in vivo
[7] = biological target: Serine/threonine-protein kinase B-raf (Homo sapiens) (UniProt P15056); assay: Inhibition of recombinant human full length N-terminal GST-tagged BRAF expressed in baculovirus infected Sf9 cells assessed as change in enzyme activity at 1 uM in presence of 1 uM ATP relative to control; parameters: scale not given: the % may be the effect or the level left
Sequence of Serine/threonine-protein kinase B-raf (Homo sapiens) (P15056 whole entry): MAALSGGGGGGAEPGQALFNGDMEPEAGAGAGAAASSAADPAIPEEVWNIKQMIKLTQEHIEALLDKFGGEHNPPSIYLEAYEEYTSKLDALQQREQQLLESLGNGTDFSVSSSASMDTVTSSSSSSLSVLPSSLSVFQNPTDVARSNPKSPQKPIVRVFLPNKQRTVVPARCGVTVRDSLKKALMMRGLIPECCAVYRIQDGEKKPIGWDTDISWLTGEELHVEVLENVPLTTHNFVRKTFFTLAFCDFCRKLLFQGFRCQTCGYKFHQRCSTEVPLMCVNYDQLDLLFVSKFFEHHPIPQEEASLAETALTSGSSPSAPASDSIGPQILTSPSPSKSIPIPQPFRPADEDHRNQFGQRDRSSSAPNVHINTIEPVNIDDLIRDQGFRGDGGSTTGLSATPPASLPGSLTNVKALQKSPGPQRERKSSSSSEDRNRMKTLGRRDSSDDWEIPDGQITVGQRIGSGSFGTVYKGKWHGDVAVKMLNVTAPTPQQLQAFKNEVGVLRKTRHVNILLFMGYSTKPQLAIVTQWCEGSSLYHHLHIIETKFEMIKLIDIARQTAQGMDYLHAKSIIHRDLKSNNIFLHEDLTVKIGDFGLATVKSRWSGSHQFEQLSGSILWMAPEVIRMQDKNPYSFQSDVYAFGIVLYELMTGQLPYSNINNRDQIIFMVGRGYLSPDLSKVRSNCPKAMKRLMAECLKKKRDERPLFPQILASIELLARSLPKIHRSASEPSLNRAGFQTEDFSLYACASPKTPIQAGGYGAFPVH

[8] = Metabolic stability in rat liver microsomes assessed as metabolism rate; format: ADME, microsome
[9] = biological target: Tyrosine-protein kinase Tec (Homo sapiens) (UniProt P42680); assay: Inhibition of recombinant full length N-terminal GST-tagged TEC (unknown origin) expressed in baculovirus infected Sf9 cells assessed as change in enzyme activity at 1 uM in presence of 2 uM ATP relative to control; parameters: scale not given: the % may be the effect or the level left
Sequence of Tyrosine-protein kinase Tec (Homo sapiens) (P42680 whole entry): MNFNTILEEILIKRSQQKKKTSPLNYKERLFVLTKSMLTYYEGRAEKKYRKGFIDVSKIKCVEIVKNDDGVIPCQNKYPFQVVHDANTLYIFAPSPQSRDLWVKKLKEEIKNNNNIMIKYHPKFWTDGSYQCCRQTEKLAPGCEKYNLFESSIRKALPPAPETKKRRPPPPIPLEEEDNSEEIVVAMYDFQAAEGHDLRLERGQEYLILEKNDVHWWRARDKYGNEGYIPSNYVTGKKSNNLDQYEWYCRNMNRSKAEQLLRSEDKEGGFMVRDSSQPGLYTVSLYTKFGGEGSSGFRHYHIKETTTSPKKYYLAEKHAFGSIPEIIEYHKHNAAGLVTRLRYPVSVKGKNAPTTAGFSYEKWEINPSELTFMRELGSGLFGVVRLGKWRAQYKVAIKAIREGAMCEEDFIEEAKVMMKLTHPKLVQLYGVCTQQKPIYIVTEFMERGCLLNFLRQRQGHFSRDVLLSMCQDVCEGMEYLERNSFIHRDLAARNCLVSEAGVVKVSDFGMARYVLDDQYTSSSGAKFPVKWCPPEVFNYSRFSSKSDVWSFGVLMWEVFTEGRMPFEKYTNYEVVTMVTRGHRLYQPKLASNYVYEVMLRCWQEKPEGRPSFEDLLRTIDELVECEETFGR

[10] = biological target: STE20-like serine/threonine-protein kinase (Homo sapiens) (UniProt Q9H2G2); assay: Inhibition of recombinant human full length N-terminal GST-tagged SLK expressed in baculovirus infected Sf9 cells assessed as change in enzyme activity at 1 uM in presence of 2 uM ATP relative to control; parameters: scale not given: the % may be the effect or the level left
[11] = biological target: Interleukin-1 receptor-associated kinase 4 (Homo sapiens) (UniProt Q9NWZ3); assay: Inhibition of recombinant human full length N-terminal GST-tagged IRAK4 expressed in baculovirus infected Sf9 cells assessed as change in enzyme activity at 1 uM in presence of 2 uM ATP relative to control; parameters: scale not given: the % may be the effect or the level left
[12] = biological target: Mitogen-activated protein kinase 3 (Homo sapiens) (UniProt P27361); assay: Inhibition of recombinant human full length ERK1 assessed as change in enzyme activity at 1 uM in presence of 1 uM ATP relative to control; parameters: scale not given: the % may be the effect or the level left
[13] = Metabolic stability in mouse liver microsomes assessed as metabolism rate; format: ADME, microsome
[14] = biological target: cAMP-dependent protein kinase catalytic subunit alpha (Homo sapiens) (UniProt P17612); assay: Inhibition of recombinant human full length N-terminal GST-tagged PKACalpha expressed in baculovirus infected Sf9 cells assessed as change in enzyme activity at 1 uM in presence of 1 uM ATP relative to control; parameters: scale not given: the % may be the effect or the level left
[15] = biological target: Proto-oncogene tyrosine-protein kinase Src (Homo sapiens) (UniProt P12931); assay: Inhibition of SRC (unknown origin) assessed as change in enzyme activity in presence of 1 uM ATP relative to control; parameters: scale not given: the % may be the effect or the level left
[16] = biological target: AMPK alpha2/beta1/gamma1 (Homo sapiens) (UniProt P54646+P54619+Q9Y478); assay: Inhibition of recombinant human full length C-terminal His tagged AMPKalpha2beta1gamma1 expressed in baculovirus infected Sf9 cells assessed as change in enzyme activity at 1 uM in presence of 2 uM ATP relative to control; parameters: scale not given: the % may be the effect or the level left
Sequence of AMPK alpha2/beta1/gamma1 (Homo sapiens) (P54619 whole entry partner): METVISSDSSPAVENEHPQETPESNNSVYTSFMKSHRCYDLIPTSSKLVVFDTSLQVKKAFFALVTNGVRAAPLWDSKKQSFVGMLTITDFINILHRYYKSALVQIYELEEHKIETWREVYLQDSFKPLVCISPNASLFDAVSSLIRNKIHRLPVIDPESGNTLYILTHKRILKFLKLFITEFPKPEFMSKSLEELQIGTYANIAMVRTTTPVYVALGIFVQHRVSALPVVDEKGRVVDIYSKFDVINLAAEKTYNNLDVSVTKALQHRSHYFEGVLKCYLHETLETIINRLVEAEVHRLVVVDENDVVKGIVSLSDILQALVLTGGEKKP
Sequence of AMPK alpha2/beta1/gamma1 (Homo sapiens) (P54646 whole entry): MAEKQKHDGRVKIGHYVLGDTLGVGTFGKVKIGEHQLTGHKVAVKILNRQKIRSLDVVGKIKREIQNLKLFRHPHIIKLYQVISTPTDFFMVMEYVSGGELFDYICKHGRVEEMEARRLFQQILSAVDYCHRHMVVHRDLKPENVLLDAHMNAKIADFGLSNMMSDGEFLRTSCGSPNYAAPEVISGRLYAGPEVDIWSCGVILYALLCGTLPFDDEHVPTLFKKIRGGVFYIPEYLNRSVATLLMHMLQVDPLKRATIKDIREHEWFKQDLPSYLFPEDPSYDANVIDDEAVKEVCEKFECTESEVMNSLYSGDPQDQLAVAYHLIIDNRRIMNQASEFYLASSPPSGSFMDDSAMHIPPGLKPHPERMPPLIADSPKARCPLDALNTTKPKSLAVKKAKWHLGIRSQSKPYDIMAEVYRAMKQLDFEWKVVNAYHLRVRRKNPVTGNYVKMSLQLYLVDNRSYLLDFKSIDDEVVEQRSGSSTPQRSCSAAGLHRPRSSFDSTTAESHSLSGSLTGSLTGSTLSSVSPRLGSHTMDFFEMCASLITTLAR
Sequence of AMPK alpha2/beta1/gamma1 (Homo sapiens) (Q9Y478 2-270 partner limits assumed): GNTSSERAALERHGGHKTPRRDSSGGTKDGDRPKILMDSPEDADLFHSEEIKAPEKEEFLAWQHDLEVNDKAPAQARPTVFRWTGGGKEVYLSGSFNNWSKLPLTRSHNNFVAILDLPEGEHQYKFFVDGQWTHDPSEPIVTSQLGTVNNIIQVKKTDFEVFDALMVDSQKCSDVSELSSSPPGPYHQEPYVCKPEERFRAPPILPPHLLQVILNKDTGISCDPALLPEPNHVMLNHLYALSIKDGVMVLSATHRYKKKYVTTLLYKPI

[17] = biological target: T1, Tyrosine-protein kinase BTK (Mus musculus, UniProt P35991); assay: Inhibition of mouse BTK assessed as decrease in anti-mouse IgD antibody stimulated BCR mediated CD69 upregulation in whole blood preincubated for 1 hr followed by antibody challenge after 4 hrs by flow cytometry
T1 sequence (P35991 whole entry): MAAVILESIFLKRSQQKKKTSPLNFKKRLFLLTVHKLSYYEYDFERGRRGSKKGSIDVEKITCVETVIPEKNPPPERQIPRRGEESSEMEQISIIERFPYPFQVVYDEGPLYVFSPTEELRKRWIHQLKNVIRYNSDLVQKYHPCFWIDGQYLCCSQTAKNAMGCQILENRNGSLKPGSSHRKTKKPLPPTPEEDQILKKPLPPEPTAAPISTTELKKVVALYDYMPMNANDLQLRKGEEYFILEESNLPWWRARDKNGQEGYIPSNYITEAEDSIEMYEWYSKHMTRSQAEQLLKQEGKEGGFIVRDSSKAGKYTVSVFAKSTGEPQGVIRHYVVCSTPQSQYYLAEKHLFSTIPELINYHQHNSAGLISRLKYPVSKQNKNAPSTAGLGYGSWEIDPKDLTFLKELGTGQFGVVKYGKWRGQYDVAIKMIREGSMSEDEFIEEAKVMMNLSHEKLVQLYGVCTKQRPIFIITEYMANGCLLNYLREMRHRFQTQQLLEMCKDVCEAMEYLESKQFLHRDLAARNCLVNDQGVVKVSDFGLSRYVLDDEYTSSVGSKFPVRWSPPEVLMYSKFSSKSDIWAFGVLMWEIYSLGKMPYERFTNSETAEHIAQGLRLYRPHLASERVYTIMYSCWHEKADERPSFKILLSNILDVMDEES

[18] = test system: Mus musculus; assay: Dose normalized AUC (0 to 24 hrs) in mouse at 10 mg/kg, po; format: ADME, organism-based; settings: in vivo
[19] = Volume of distribution at steady state in mouse at 3 mg/kg, iv; format: ADME, organism-based; settings: in vivo, read-out: Vdss
[20] = test system: Mus musculus; assay: Ex-vivo inhibition of BTK in C57BL/6J mouse assessed as anti-mouse IgD antibody stimulated BCR mediated CD69 level in whole blood isolated from 30 mg/kg, po bid treated mouse measured after 6 hrs post first dose by flow cytometry relative to control; format: functional; parameters: scale not given: the % may be the effect or the level left
[21] = biological target: Tyrosine-protein kinase TXK (Homo sapiens, UniProt P42681); assay: Inhibition of TXK (unknown origin)
[22] = biological target: Rho-associated protein kinase 1 (Homo sapiens) (UniProt Q13464); assay: Inhibition of recombinant human N-terminal GST-tagged ROCK1 (17 to 535 residues) expressed in baculovirus infected Sf9 cells assessed as change in enzyme activity at 1 uM in presence of 1 uM ATP relative to control; parameters: scale not given: the % may be the effect or the level left
[23] = biological target: T1, Tyrosine-protein kinase BTK; assay: Inhibition of C57BL/6J mouse BTK assessed as decrease in anti-mouse IgM antibody stimulated BCR mediated CD69 upregulation preincubated for 30 mins followed by antibody challenge after 18 to 24 hrs by flow cytometry
[24] = biological target: Dual specificity mitogen-activated protein kinase kinase 1 (Homo sapiens) (UniProt Q02750); assay: Inhibition of recombinant full length N-terminal GST-tagged MEK1 (unknown origin) assessed as change in enzyme activity at 1 uM in presence of 1 uM ATP relative to control; parameters: scale not given: the % may be the effect or the level left
[25] = biological target: Death-associated protein kinase 1 (Homo sapiens) (UniProt P53355); assay: Inhibition of recombinant human N-terminal GST-tagged DAPK1 (1 to363 residues) expressed in baculovirus infected Sf9 cells assessed as change in enzyme activity at 1 uM in presence of 1 uM ATP relative to control; parameters: scale not given: the % may be the effect or the level left
[26] = biological target: Hepatocyte growth factor receptor (Homo sapiens) (UniProt P08581); assay: Inhibition of recombinant human N-terminal GST-tagged MET (956 to end residues) expressed in baculovirus infected Sf9 cells assessed as change in enzyme activity at 1 uM in presence of 1 uM ATP relative to control; parameters: scale not given: the % may be the effect or the level left
[27] = biological target: Cytoplasmic tyrosine-protein kinase BMX (Homo sapiens) (UniProt P51813); assay: Inhibition of recombinant full length N-terminal GST-tagged BMX (unknown origin) expressed in baculovirus infected Sf9 cells assessed as change in enzyme activity at 1 uM in presence of 2 uM ATP relative to control; parameters: scale not given: the % may be the effect or the level left
[28] = Cmax in mouse at 10 mg/kg, po; format: ADME, organism-based; parameters: dose 10 mg/kg, route oral; settings: in vivo
[29] = biological target: Aurora kinase A (Homo sapiens) (UniProt O14965); assay: Inhibition of recombinant full length N-terminal GST-tagged AURORA A (unknown origin) expressed in baculovirus infected Sf9 cells assessed as change in enzyme activity at 1 uM in presence of 2 uM ATP relative to control; parameters: scale not given: the % may be the effect or the level left

| SMILES | half-life [1] [h] | Activity [2] [%] | Activity [3] [%] | Activity [4] [%] | Activity [5] [%] | bioavailability [6] [%] | Activity [7] [%] | Drug metabolism [8] | Activity [9] [%] | Activity [10] [%] | Activity [11] [%] | Activity [12] [%] | Drug metabolism [13] [nmol/min/mg] | Activity [14] [%] | Activity [15] [%] | Activity [16] [%] | IC50 [17] [nM] | AUC/dose [18] [µM·h] | Vd [19] [L/kg] | Activity [20] [%] | other results |
| --- | --- | --- | --- | --- | --- | --- | --- | --- | --- | --- | --- | --- | --- | --- | --- | --- | --- | --- | --- | --- | --- |
| O=C1c2c(F)cc(C3CC3)cc2OCCN1c1cccc(-c2ccnc3[nH]c(C4=CCN(C5COC5)CC4)cc23)c1CO | 1.1 | -10 | -1 | 3 | -8 | 49 | -6 | < 0.04 nmol/min/mg | -31 | -9 | 2 | 1 | < 0.04 | 0 | -26 | 1 | 364 | 25.8 | 0.6 | 56 | IC50 [21]: > 10000 nM; Activity [22]: 3%; IC50 [23]: 41.9 nM; Activity [24]: -20%; Activity [25]: -1%; Activity [26]: 5%; Activity [27]: -10%; Cmax [28]: 7.6 µM; Activity [29]: -10% |
| CCN1CCN(Cc2ccc(-c3cc4c(-c5cccc(N6CCOc7cc(C8CC8)cc(F)c7C6=O)c5CO)ccnc4[nH]3)nc2)CC1 | 5.6 | -4 | -1 | 2 | 1 | 51 | 1 | <= 0.04 nmol/min/mg | -35 | -5 | -3 | 2 | < 0.04 | -2 | -33 | 2 | 159 | 27 | 1.9 | 81 | IC50 [21]: > 10000 nM; Activity [22]: -4%; IC50 [23]: 8.4 nM; Activity [24]: -14%; Activity [25]: 2%; Activity [26]: -6%; Activity [27]: -49%; Cmax [28]: 2.3 µM; Activity [29]: -2% |
